Data published in patent US20220143086A1, “METHOD OF HOMING AND RETENTION OF GAMMADELTA T CELLS, OPTIONALLY WITH NATURAL KILLER CELLS, FOR GENERATING CELL COMPOSITIONS FOR USE IN THERAPY” (Gamida Cell Ltd., priority 2019, published 2022).
Entries after “also recorded” stand apart in the source; their conditions may differ.

What was measured:
[1] = system: alphabeta-depleted peripheral blood cells; assay: T-cell receptor characterization by FACS of CD3+ cells from cultured alphabeta-depleted blood cells; format: cell-based, human; conditions: 5 mM nicotinamide
Experimental: (§1) Healthy donor blood units samples were depleted of TCR alphabeta-expressing T-cells using midiMACS™ columns and TCRα/β Kit (Miltenyi Biotec, Gaithersberg, Md.). Alphabeta-T-cell depleted populations were cultured for 12-13 days in VueLife® (Saint-Gobain, Gaithersburg, Md.) bags with medium supplemented with 0 (control) or 5 mM nicotinamide (NAM) and 50 ng/ml IL-2.
To characterize T cell receptor (TCR) expressed on CD3+ cells in culture, CD3 positive cells were purified with CliniMACS™ CD3 reagent (Miltenyi, 273-01, Gaithersburg, Md.) followed by FACS analysis of the percentages of CD3+/γδ+ and CD3+/α/β+ cells. FACS staining and analysis was performed according to standard procedures employing cell surface-specific antibodies.

gammadelta T cells [2] = assay: Transplantation and in-vivo homing and retention of expanded gammadelta T-cells in irradiated NSG mice; conditions: for in-vivo homing and tissue retention of gammadelta cells: cells expanded with 5 mM NAM, CFSE-labeled, i.v. into irradiated NSG mice, 4 days, all tissues analyzed
Experimental: as §1
CD3+/gammadelta+ cells were purified from culture, as described above, and then marked with CFSE (Invitrogen, Thermo-Fisher, Carlsbad, Calif.). NSG SCID mice were irradiated at 350cGy. The next day following irradiation, 5-6×10^6 CFSE-labeled CD3+/gammdelta-positive cells per mouse from NAM and control (−NAM) cultures were injected intravenously into the mice.
Mice were sacrificed 4 days after cell infusion, and organs excised. Fractions of CFSE stained cells were evaluated by FACS of organ cell suspensions.

gammadelta T cells [3] = assay: CD62L expression in expanded gammadelta T-cells (FACS); format: cell-based, human
Experimental: as §1
Purified gamma-delta T-cells from NAM-treated and control (−NAM) cultures were stained for CD62L (L-selectin) and analyzed by FACS, using anti-CD62L antibodies.

[4] = cells cultured with 5 mM NAM, 4 days after infusion, irradiated NSG mice

SMILES: NC(=O)c1cccnc1 [NAM, nicotinamide]
- gammadelta T cells in CD3+ T-cell fraction ([1]; 50 ng/ml IL-2, 12-13 days culture, CD3+ selected, FACS): greater than 90%
- effect on expansion of the gammadelta positive component of cultured T-cell populations ([1]; 12-13 days culture): does not seem to affect
- gammadelta T-cells retained in blood and lung tissue (gammadelta T cells [2]; [4]): nearly three-fold increase
- gammadelta T-cells retained in lymphoid tissue (spleen, bone marrow) (gammadelta T cells [2]; [4]): powerful enhancement
- in-vivo homing and tissue retention of gammadelta cells (gammadelta T cells [2]): enhanced incidence of homing and retention; also recorded: striking effect
- in-vivo homing and tissue retention of gammadelta cells (gammadelta T cells [2]; listed as nicotinamide): greater homing and tissue retention
- CD62L expression (in words) (gammadelta T cells [3]; 5 mM NAM versus identical cells cultured without NAM): striking enhancement
- increase in CD62L expression (gammadelta T cells [3]; 5 mM nicotinamide, 12-13 days culture, versus culture without NAM): ~3 fold
